Key:
[1] = system: H3K27 acetylation of SNCA promoter and enhancers; test: chromatin immunoprecipitation for H3K27ac at SNCA promoter and enhancers in SK-N-MC cells; format: cell-based, human; conditions: clenbuterol 10 μM, valproic acid 100 μM, propranolol 100 μM, vs vehicle
Procedure: Chromatin immunoprecipitation (ChIP) assays were performed using the Simple ChIP Enzymatic Chromatin IP kit protocol as recommended by the manufacturer (Cell Signaling Technology) with slight modifications. Briefly, ChIPs were performed on asynchronously growing SK-N-MC cells treated with clenbuterol (10 μM), valproic acid (100 μM) or propranolol (100 μM). Cross-linking was carried out with 1% formaldehyde for 10 min at room temperature. Cross-linking was subsequently quenched by adding glycine to a final concentration of 1× for 5 min. Cells were collected and washed twice with PBS, then resuspended in 2 mL of lysis buffer (as described in the protocol). After 10 min on ice, cells were treated with micrococcal nuclease and then sonicated to obtain DNA fragments of ˜500 bp as determined by agarose gel electrophoresis with ethidium bromide staining. Protein-DNA complexes were isolated by centrifugation at 10,000 rpm for 10 min. Supernatants with protein-DNA complexes were incubated overnight with rabbit polyclonal antibody directed against acetylated H3K27 (Abcam). Normal rabbit IgG was used as a negative control and Histone H3 rabbit mAb (ChIP formulated) as positive control. 2% of sample was saved as input. Antibody-protein-DNA complexes were further incubated for 2 hours with 30 μl of ChIP-grade Protein G magnetic beads to isolate antibody bound fractions of chromatin. Immuno-complexes were washed with the buffers provided and as described in the kit. Protein-DNA complexes were eluted and cross-links of pull down fractions and inputs (2% of total IP fraction) were reversed by 2 hours incubation in Proteinase K and 5 M NaCl at 65° C. […] 2 μl of immunoprecipitated DNA was analyzed by qPCR using a Power SYBR Green PCR Master mix (Applied Biosystems by Life technologies) on an ABI 7900HT instrument (Applied Biosystems) with the following temperature profile: 3 min of enzyme activation at 95° C. followed by 40 cycles of 95° C. for 15 s and 60° C. for 60 s. Sample from three independent immunoprecipitation assays were analyzed.

α-synuclein protein = test: α-synuclein-specific ELISA in SK-N-MC cells; format: cell-based, human
Procedure: Protein lysis buffer containing 320 mM sucrose, 5 mM NaF, 1 mM Na3VO4, 10 mM Tris (pH 7.4), 1 mM EGTA, and 1 mM EDTA was used for mice brain tissue lysis. 100 μL of cold extraction buffer was added to each sample and homogenized in a dounce homogenizer. After incubating on ice for 10 minutes post-homogenization, samples were centrifuged at 10,000 rpm at 4° C. for 10 minutes. Supernatant was transferred to new tubes and centrifuged again at 10,000 rpm at 4° C. for additional 10 minutes. The final supernatant was transferred to new tubes and protein estimation was performed by ELISA. Total protein from rodent primary cells, human neuroblastoma cells and iPSC-derived neuronal cells was extracted using lysis buffer containing 1×PBS and 0.5% NP-40. Cells were washed once with cold PBS and lysed by adding cold lysis buffer. The cells were collected by scraping, then incubated for 30 minutes by rotating at 4° C. The samples were centrifuged at 14,000 rpm at 4° C. for 10 minutes and supernatant was transferred to new tubes. Total protein concentrations were determined by BCA assay (Thermo Scientific) according to the manufacturer's instructions. Total α-synuclein was quantified using an α-synuclein-specific sandwich ELISA.
An α-synuclein-specific Meso Scale Discovery (MSD) ELISA assay (described in Ref. (11)) was utilized for endogenous α-synuclein protein measurement. […] After samples were emptied and plate washed 3 times with TBS-T, sulfo-tagged SOY1 mAb (detection Ab) (generated using Sulfo-Tag-NHS-Ester (MSD) diluted in blocking buffer (6.7 ng/μl), was added to the plate (30 μl volumes/well) and shaken for 1 hour at room temperature. Following 3 washes, MSD Read (2×, diluted in ultrapure water) buffer was added and the plates were immediately measured using a MSD Sector 2400 imager. For confirmatory studies, an second α-synuclein-specific ELISA implementation was used employing a different, extensively published anti-α-synuclein detection antibody (Syn-1 mAb) and a different anti-α-synuclein capture antibody (1H9, courtesy Dr. Selkoe).

Snca mRNA = Snca mRNA in rat primary cortical neurons; format: cell-based; conditions: metaproterenol 5 μM, clenbuterol 20 μM, salbutamol 10 μM, 48 hours
Procedure: Primary cortical cultures were generated from E18 Sprague-Dawley rat embryos. The cortical region was dissected out in Hank's Balanced Salt Solution buffered with Hepes and dissociated with 0.125% trypsin (Invitrogen) for 17 min at 37 ° C., followed by trituration. Dissociated cells were plated at a density of 5×10^5 cells/well or 2.5×10^5 cells/well in 12-well or 24-well plates, respectively precoated with poly-D lysine (100 μg/mL). The cells were cultured in Neurobasal medium with B-27 supplement (Invitrogen) and glutamax and gentamycin. Half of the medium was changed every 4 days. Cortical neurons were treated with β2AR agonists 10 days post plating. They were then harvested 48 hours post-treatment for mRNA extraction and 72 hours post-treatment for protein extraction.
Total RNA from flash-frozen mice brain tissue, rodent primary cells, human neuroblastoma cells and iPSC-derived neuronal cells was isolated using TRIzol® (Life Technologies) following the manufacturer's protocol. RNA concentration was measured using NanoDrop spectrophotometer (Thermo Fisher Scientific, Wilmington, De.). 2 μg of total RNA was reverse transcribed into cDNA using the High Capacity cDNA Reverse Transcription Kit from Applied Biosystems. Quantitative PCR was performed using TaqMan Universal PCR Master Mix (Applied Biosystems) on an ABI 7900HT instrument (Applied Biosystems) as described previously (31). For mouse brain tissue and rat primary cortical neuron samples, rodent-specific TaqMan Assay on-demand primers and probes were used to assay the relative abundance of target genes, and rodent Rp113 was used as a reference gene to normalize for RNA loading. Similar results were obtained when Actb or Ubc were used as controls for input RNA. For human neuroblastoma and iPSC-derived neuron samples, human TaqMan Assay on-demand probes were used to assay the relative abundance of target genes, and the geometric mean of the three human reference genes RPL13, GUSB and UBC was used to normalize for RNA loading. Expression values were analyzed using the comparative threshold cycle method (31).

SMILES: CC(C)NCC(O)COc1cccc2ccccc12 (stereo not shown) [Propranolol, propranolol]
- H3K27 acetylation across SNCA promoter and two intronic enhancers (ChIP) [1]: increased H3K27Ac
- endogenous α-synuclein protein under β2AR antagonism (α-synuclein protein; SK-N-MC cells): increased

SMILES: CC(C)(C)NCC(O)c1ccc(O)c(CO)c1 (stereo not shown) [Salbutamol, salbutamol]
- endogenous Snca mRNA (Snca mRNA): significantly, but modestly, reduced

SMILES: CC(C)(C)NCC(O)c1cc(Cl)c(N)c(Cl)c1 (stereo not shown) [clenbuterol]
- H3K27 acetylation across SNCA promoter and two intronic enhancers (ChIP) [1]: reduced H3K27 acetylation
- endogenous Snca mRNA (Snca mRNA): significantly, but modestly, reduced
- α-synuclein protein after 14 days (α-synuclein protein; SK-N-MC cells, 10 μM, 14 days): lowered
- α-synuclein protein levels with increasing concentrations (α-synuclein protein; SK-N-MC cells, 5, 10, 20 μM, four days): decrease

From patent US20210308077A1, “COMBINATIONS INCLUDING BETA-ADRENORECEPTOR AGONISTS FOR TREATMENT OF PARKINSON`S DISEASE AND MOVEMENT DISORDERS” (The Brigham and Women`s Hospital, Inc., priority 2017, published 2021)
